According to patent US8906953B2, “Pyrrolidine substitute flavones for the treatment of inflammatory disorders” (Piramal Enterprises Limited, priority 2010, dated 2014):

Key:
p38 MAP kinase = target: T1, p38 MAP kinase (Homo sapiens, UniProt Q16539); assay: p38 MAP kinase inhibition, western blot in anisomycin-stimulated Jurkat cells; type: cell-based; settings: 0.1 μM, anisomycin 10 μg/mL 30 minutes
T1 construct: endogenous in cells; host or cells: Jurkat T-cells (ATCC)
Description: The method for identifying inhibitors of p38 mitogen-activated protein (MAP) Kinase was designed as in reference, Journal of Lipid Research, 1999, 40, 1911-1919, the disclosure of which is incorporated herein by reference for the teaching of the assay.
Human Jurkat T-cells from American Type Culture Collection (ATCC) were cultivated in Rosewell Park Memorial Institute (RPMI) medium supplemented with 10% fetal bovine serum (FBS), penicillin (100 U/mL) and streptomycin (100 μg/mL) at 37° C. in humidified atmosphere of 95% air-5% CO2. Culture medium was changed every 2-3 days and always 24 hours before harvest. RPMI medium, FBS, CellLytic, anti-β-actin, sodium orthovanadate and anisomycin were purchased from Sigma-Aldrich (USA). TNF-α was purchased from R & D Systems (USA). Complete Protease inhibitor cocktail was procured from Roche.
Jurkat cells were preincubated with vehicle or the compound of example 3 (0.1 μM) for 1 hour in a 37° C., CO2 incubator. For MAPK experiments, the cells were stimulated with anisomycin (10 μg/mL) for 30 minutes. SB 203580 was used as a standard (1 μM). […] Aliquots of the resulting extracts were analyzed for their protein content using the Coomassie Plus Protein Assay Reagent (Pierce) following manufacturer's instructions. […]

[1] = tested on: synovial fluid mononuclear cells (SFMC); assay: Induction of apoptosis in synovial fluid mononuclear cells (Annexin-V/PI); type: cell-based, human; settings: adherent and non-adherent SFMC from RA patients, 5 μM and 10 μM, 24 hours
Description: The assay was designed as in reference, Arthritis and Rheumatism, Vol. 52, No. 1, January 2005, the disclosure of which is incorporated herein by reference for the teaching of the assay.
Synovial fluid was collected from rheumatoid arthritis patients under going knee aspiration. The fluid was collected in vacutainers and processed within 2 hours of collection. SFMC were isolated using gradient centrifugation using Ficoll-Hypaque solution (Sigma). Isolated SFMC were suspended in RPMI 1640 (Rosewell Park Memorial Institute) culture medium (Sigma-Aldrich Fine Chemicals, USA) containing 20% fetal bovine serum (FBS) (JRH, USA), 100 U/ml penicillin (Sigma Chemical Co. St Louis, Mo.) and 100 μg/mL streptomycin (Sigma Chemical Co. St Louis, Mo.). The cell concentration was adjusted to 1×10^6 cells/mL. The viability as determined by trypan blue dye exclusion was uniformly >98%. 4 mL of this cell suspension was added to each well of a 6-well plate. The SFMC were incubated for 3-4 hours. Non-adherent cells were removed and cultured separately in 6-well plates. Fresh medium was added to the adherent cells. After 24 hours incubation in a humidified atmosphere at 37° C. in 5% CO2, non-adherent cells were removed and pooled with previous days samples. These cells were plated at a density of 2×10^6 cells/well. The adherent cell population was re-fed fresh complete medium. […]

T1 sequence (Q16539 whole entry): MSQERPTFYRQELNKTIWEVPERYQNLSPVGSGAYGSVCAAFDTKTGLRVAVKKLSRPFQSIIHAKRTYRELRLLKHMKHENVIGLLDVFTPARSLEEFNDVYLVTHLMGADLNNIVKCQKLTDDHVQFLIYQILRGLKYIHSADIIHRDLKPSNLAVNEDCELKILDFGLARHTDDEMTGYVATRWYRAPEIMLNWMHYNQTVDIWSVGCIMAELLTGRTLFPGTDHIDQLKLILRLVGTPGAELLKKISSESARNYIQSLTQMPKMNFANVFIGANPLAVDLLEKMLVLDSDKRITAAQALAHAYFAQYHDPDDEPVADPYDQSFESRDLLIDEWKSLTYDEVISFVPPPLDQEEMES

p38 MAP kinase inhibition (western blot) (p38 MAP kinase): not an inhibitor of p38 MAP kinase
Structure (SMILES): CN1CC[C@@H](c2c(O)cc(O)c3c(=O)cc(-c4ccc(C(F)(F)F)cc4Cl)oc23)[C@@H]1CO.Cl [Compound of example 3, (+)-trans-2-(2-Chloro-4-trifluoromethyl-phenyl)-5,7-dihydroxy-8-(2-hydroxymethyl-1-methyl-pyrrolidin-3-yl)-chromen-4-one hydrochloride]
Induction of apoptosis (Annexin-V/PI) [1]: induces apoptosis
